One test has as its system HIV-1IIIB. Briefly: HIV-1 antiviral assay in CEM-SS cells.
The subject of another test is HCMV strain AD169. Briefly: HCMV plaque assay in MRC-5 cells. Particulars: for inhibition of HCMV plaque formation as compared to the virus control experiment: 10 micrograms per ml, MRC-5 cells, 7-10 days.
Test [1] relates to hepatitis B virus (HBV) ayw strain. As to the kind of experiment: HBV experimental assay system (HepG2-2.2.15, TaqMan PCR of HBV DNA). In kind it is cell-based. To be noted: 10 micrograms per ml; HepG2-2.2.15, six days; combination 0.95 mole peptide 1 and 1.05 mole peptide 2. An excerpt:
HepG2-2.2.15 is a stable cell line containing the hepatitis B virus (HBV) ayw strain genome (ATCC Cat. No. CRL-11997). Antiviral compounds blocking any late step of viral replication such as transcription, translation, pregenome encapsidation, reverse transcription, particle assembly and release can be identified and characterized using this cell line. In this assay, an active compound will reduce the production of secreted HBV from cells, measured by utilizing real time quantitative PCR (TaqMan) assay to directly and accurately measure HBV DNA copies.
HepG2-2.2.15 cells were plated in 96-well microtiter plates. After 16-24 hours the confluent monolayer of HepG2-2.2.15 cells was washed and the medium was replaced with complete medium containing test peptides—10 micrograms per ml—in duplicate. […] Six days following the initial administration of the peptides, the cell culture supernatants was collected, treated with pronase and DNAse and then used in a real-time quantitative TaqMan PCR assay. The PCR-amplified HBV DNA was detected in real-time by monitoring increases in fluorescence signals that result from the exonucleolytic degradation of a quenched fluorescence probe molecule that hybridizes to the amplified HBV DNA. […] Antiviral activity was calculated from the reduction in HBV DNA levels (% virus control). […]
Background: In qPCR the cycle at which signal appears reflects the starting amount.

In a further test the test system is HUVEC. As to the kind of experiment: Endothelial tube formation assay. It counts as cell-based, human. Particulars: 10 micrograms per ml, 20 hours, combination peptide 1:peptide 2 1.10 mole:0.90 mole. The text has this:
Positive control was vehicle only.

In another test the test system is Interleukin-4 (IL-4). Briefly: Th1/Th2 cytokine profiling assay: IL-4. In kind it is cell-based, mouse. Particulars: 10 micrograms per ml, Ovalbumin-restimulated spleen cells, 72 hours.
The next test has as its system Interferon-γ (IFN-γ). Briefly: Th1/Th2 cytokine profiling assay: IFN-γ. It counts as cell-based, mouse. Particulars: 10 micrograms per ml; Ovalbumin-restimulated spleen cells, 72 hours; combination 0.95 mole peptide 1 and 1.05 mole peptide 2.
Test [2] deals with Tumor Necrosis Factor-α (TNF-α). As to the kind of experiment: Th1/Th2 cytokine profiling assay: TNF-α. It counts as cell-based, mouse. Particulars: 10 micrograms per ml; Ovalbumin-restimulated spleen cells, 72 hours; combination 0.95 mole peptide 1 and 1.05 mole peptide 2.
For another test, the system named is Interleukin-2 (IL-2). As to the kind of experiment: Th1/Th2 cytokine profiling assay: IL-2. In kind it is cell-based, mouse. Particulars: 10 micrograms per ml, 72 hours.
Another test concerns Interleukin-5 (IL-5). As to the kind of experiment: Th1/Th2 cytokine profiling assay: IL-5. It counts as cell-based, mouse. To be noted: 10 micrograms per ml; Ovalbumin-restimulated spleen cells, 72 hours.
The next test has as its system MRSA. As to the kind of experiment: Methicillin Resistant Staphylococcus Aureus (MRSA) assay. Particulars: 10 micrograms per ml; 5×10^5 CFU/mL; combination for instance 0.95 mole peptide 1 and 1.05 mole peptide 2.
The test system of test [3] is Primary Human endothelial cells (HUVEC). Briefly: Endothelial cell migration assay. It counts as cell-based. Particulars: 10 micrograms per ml, 22 hours.

Where no end group is shown, it is not given here.

Five compounds from US20100197586A1, “USE OF SECRETIN AND OPTIONALLY URODILATIN AS THERAPEUTIC AGENTS” (priority 2007, published 2010) can be followed below.

Consider `Cc1cn([C@H]2C[C@H](N=[N+]=[N-])[C@@H](CO)O2)c(=O)[nH]c1=O` [AZT], for which, in the test with HIV-1IIIB, the “antiviral activity of positive control compounds (HIV-1)” value is “expected levels of antiviral activity”.
Regarding `Nc1nc(O)c2ncn(COC(CO)CO)c2n1` [Ganciclovir, reference compound], in the test on HCMV strain AD169 (positive control compound), the “antiviral activity of positive control compound (HCMV)” value was “expected levels of antiviral activity”.
For `CC(C)(C)NC(=O)[C@@H]1CN(Cc2cccnc2)CCN1C[C@@H](O)C[C@@H](Cc1ccccc1)C(=O)N[C@H]1c2ccccc2C[C@H]1O` [indinavir], the “antiviral activity of positive control compounds (HIV-1)” value in the test on HIV-1IIIB was “expected levels of antiviral activity”.
On to “His-Ser-Asp-Gly-Thr-Phe-Thr-Ser-Glu-Leu-Ser-Arg-Leu-Arg-Glu-Gly-Ala-Arg-Leu-Gln-Arg-Leu-Leu-Gln-Gly-Leu-Val-NH2 [Peptide 1]”, for which the “inhibition of HBV replication as compared to the virus control infection” value in test [1] is reported as 27.6%. Further, the “inhibition of the tube formation of human endothelial cells” value in the test with HUVEC was determined as 33%. In the test with Interleukin-4 (IL-4), the “change of the production of IL-4 in murine spleen cells” value is on record as “did not significantly change”. Besides, the “change of the production of IFN-γ in murine spleen cells” value with Interferon-γ (IFN-γ) is recorded as “did not significantly change”. In test [2], the “change of the production of TNF-alpha in murine spleen cells” value was “did not significantly change”. In addition, the “decrease of the production of IL-2 in murine spleen cells” value in the test on Interleukin-2 (IL-2) (Ovalbumin-restimulated spleen cells of Balb/c mice) stood at 77.7%. The “decrease of the production of IL-5” value in the test on Interleukin-5 (IL-5) was 45.8%. In addition, in the test on HCMV strain AD169, the “inhibition of HCMV plaque formation as compared to the virus control experiment” value is listed as “did not inhibit”. The “inhibition of the growth of MRSA” value in the test on MRSA came to 100%. In addition, the “inhibition of the migration of human endothelial cells” value in test [3] is listed as 2%.
“Thr-Ala-Pro-Arg-Ser-Leu-Arg-Arg-Ser-Ser-Cys-Phe-Gly-Gly-Arg-Met-Asp-Arg-Ile-Gly-Ala-Gln-Ser-Gly-Leu-Gly-Cys-Asn-Ser-Phe-Arg-Tyr-OH (TAPRSLRRSSCFGGRMDRIGAQSGLGCNSFRY-OH; ends and bridges not checked) [Peptide 2, Urodilatin]”: the “inhibition of HBV replication as compared to the virus control infection” value in test [1] is given as “did not inhibit”. Also, the “inhibition of the tube formation of human endothelial cells” value in the test on HUVEC came to 9%. Further, the “suppression of the production of IL-4 in murine spleen cells” value with Interleukin-4 (IL-4) was found to be 30.4%. In addition, the “induction of the production of IL-4” value with Interleukin-4 (IL-4) (combination 0.95 mole peptide 1 and 1.05 mole peptide 2) is recorded as 59.7%. In addition, in the test with Interferon-γ (IFN-γ), the “change of the production of IFN-γ in murine spleen cells” value is reported as “did not significantly change”. In addition, the “change of the production of TNF-alpha in murine spleen cells” value in test [2] is given as “did not significantly change”. The “change of the production of IL-2 in murine spleen cells” value in the test on Interleukin-2 (IL-2) (Ovalbumin-restimulated spleen cells, combination 0.95 mole peptide 1 and 1.05 mole peptide 2) is on record as “did not significantly change”. In the test with HCMV strain AD169, the “inhibition of HCMV plaque formation as compared to the virus control experiment” value is given as “did not inhibit”. Further, the “inhibition of the growth of MRSA” value with MRSA is 100%. Besides, the “inhibition of the migration of human endothelial cells” value in [3] turned out to be 10%.
